From patent US11680049B2, “Certain (2S)-N-[(1S)-1-cyano-2-phenylethyl]-1,4-oxazepane-2-carboxamides as dipeptidyl peptidase 1 inhibitors” (AstraZeneca AB, priority 2014, dated 2023)

Tests used:
[1] = Rat quantitative whole-body autoradiography (QWBA) studies, aortic retention; type: in vivo
[2] = described in literature (Schmidt et al. 1984); concomitant ultra-structural changes by electron microscopy; cited from earlier work

Row | aortic retention in rat QWBA studies [1] | Structure (SMILES) | retention in the aorta in QWBA studies [2]
1 | high level of aortic retention | N#Cc1ccc(-c2ccc(C[C@@H](C#N)NC(=O)C3(N)CCOCC3)cc2)cc1 [WO2010/128324 (Ex. 3), 4-amino-N-[(1S)-1-cyano-2-(4′-cyanobiphenyl-4-yl)ethyl]tetrahydro-2H-pyran-4-carboxamide] | –
2 | – | CC(c1ccc(Cl)c(Cl)c1)N1N=C(N)CC1=O (centres unmarked) [muzolimine] | retained selectively in the aorta
